{
  "source": "BindingDB's records for doi:10.1016/s0960-894x(00)00282-1",
  "about": "(Novartis Horsham Research Centre, 2000)",
  "experiment": "Compound was evaluated for its inhibitory activity against Serine protease chymotrypsin",
  "note": "pKi: −log10 of the molar value.",
  "data": [
    {"compound": "CC1CNc2c(cccc2S(=O)(=O)N[C@@H](Cc2nc3ccccc3s2)C(=O)N2CCC(CCO)CC2)C1", "note": "(stereo partly drawn) [3-Methyl-1,2,3,4-tetrahydro-quinoline-8-sulfonic acid {(S)-1-benzothiazol-2-ylmethyl-2-[4-(2-hydroxy-ethyl)-piperidin-1-yl]-2-oxo-ethyl}-amide]", "values": [
      {"measurement": "pKi", "result": 5.12}
    ]},
    {"compound": "CCC1CCN(C(=O)C(Cc2nc3ccccc3s2)NS(=O)(=O)c2cccc3c2NCC(C)(C)C3)CC1", "note": "(configuration not stated) [MD805 Analogue]", "values": [
      {"measurement": "pKi", "result": 5.31}
    ]}
  ]
}
